One experiment addresses recombinant human PARP1 (Homo sapiens, UniProt P09874). Kind of experiment: PARP1 fluorescence polarization binding assay. The settings on record: GST-tagged PARP1 20 nM, PARP1-FL probe 3 nM. As for the experimental part:
In some embodiments, the biological assay is described in the Examples herein. In some embodiments, the biological assay measures PARP-1 binding by way of fluorescence polarization measurements. In some embodiments, binding of a test compound to recombinant human PARP-1 reduces the amount of binding of a fluorescent probe, and consequently reduces the detected level of fluorescence polarization. In some test compound stock solutions are prepared in a solvent, e.g., DMSO, and are serially diluted into a range of concentrations, e.g., 15 concentrations, 14 concentrations, 13 concentrations, 12 concentrations, 11 concentrations, 10 concentrations, 9 concentrations, 8 concentrations, 7 concentrations, 6 concentrations, or 5 concentrations, by a dilution factor, e.g., a 10-fold dilution factor, a 9-fold dilution factor, an 8-fold dilution factor, a 7-fold dilution factor, a 6-fold dilution factor, a 5-fold dilution factor, a 4-fold dilution factor, a 3-fold dilution factor, or a 2-fold dilution factor. In some embodiments, the serial dilutions, e.g., 100 nL of serial dilution, 90 nL of serial dilution, 80 nL of serial dilution, 70 nL of serial dilution, 60 nL of serial dilution, 50 nL of serial dilution, 30 nL of serial dilution, 20 nL of serial dilution, or 10 nL of serial dilution, are added to a multi-welled plate, e.g., a 1536-well plate, a 384-well plate, or a 96-well plate. In some embodiments, PARP-1, e.g., GST-tagged PARP-1, is diluted in assay buffer, e.g., 50 μL of assay buffer, 40 μL of assay buffer, e.g., 30 μL of assay buffer, 20 μL of assay buffer, 10 μL of assay buffer, or 5 μL of assay buffer, and is added to the plate. In some embodiments, the plate is centrifuged, e.g., at 1000 rpm for 1 min, and incubated, e.g., incubated for 30 minutes at room temperature (RT). In some embodiments, a fluorescent probe, e.g., 10 μL of 6 nM PARP1-FL (TOCRIS, Cat #6461), is diluted in an assay buffer and is added to the plate. In some embodiments, the final concentrations of PARP-1 and fluorescent probe are 20 nM and 3 nM, respectively, in a total volume of 20 μL. In some embodiments, the plate is centrifuged, e.g., at 1000 rpm for 1 minute, and the assay plate is incubated, e.g., for 4 h at RT. In some embodiments, the samples in each well are read using a plate reader, e.g., an Envision instrument using excitation=480 nm, and emission wavelength=FITC FP-P pol 535 nm & FITC FP-S pol 535 nm). In some embodiments, percent inhibition is calculated from mP values using Inhibition (%)=[1−(mPc−mPL)/(mPH−mPL)]×100%, where mPc, mPL, and mPH are the mP values of test compound, Low controls, and High controls, respectively. In some embodiments, binding IC50 values are calculated using XLFit (equation 201: y=A+((B−A)/(1+((x/C)^D))), where A=bottom, B=top, C=IC50, and D=slope) with a floating top and bottom for curves.
Compounds of the present disclosure were tested in a PARP1 fluorescence polarization binding assay at Pharmaron (Beijing, P.R. China). In this biochemical assay, binding of test compound to recombinant human PARP1 reduces the amount of binding of a fluorescent probe, and consequently reduces the detected level of fluorescence polarization. Test compound stock solutions were prepared in DMSO and then serially diluted into 10 concentrations by 3-fold dilution in a 384-well plate using a TECAN EVO200. Alternatively, a single concentration was prepared. 60 nL of each dilution was transferred to the plate using an Echo550 (Labcyte), and then 10 μL 40 nM GST-tagged PARP1 (BPS Bioscience, Cat #80501), diluted in assay buffer (50 mM Tris pH 8.0, 0.001% Triton X-100, 10 mM MgCl2, 150 mM NaCl), was added to the plate. After a centrifugation at 1000 rpm for 1 min, the assay plate was incubated for 30 min at RT. 10 μL 6 nM PARP1-FL (TOCRIS, Cat #6461), diluted using assay buffer, was then added to the plate. The final concentrations of PARP1 and PARP1-FL were 20 nM and 3 nM, respectively, in a total volume of 20 μL. […]

In another experiment the target is recombinant human PARP2 (Homo sapiens, UniProt Q9UGN5). Kind of experiment: PARP2 fluorescence polarization binding assay. The settings on record: read-out: PARP2 % inh at 10 μM.
Experiment [1] relates to DLD-1 BRCA2(−/−) colorectal adenocarcinoma cells. Kind of experiment: Cell viability assay (Cell Titer-Glo, 7 days), DLD-1 BRCA2(−/−). As to conditions: Homo sapiens, 168 h, DLD-1 BRCA2(−/−) cells. The class given is cell-based. The text has this:
(§1) In some embodiments, the biological assay measures the effects that compounds of the present disclosure may have on the viability of cells, e.g., the viability of cancer cells. In some embodiments, DLD-1 wild-type and DLD-1 BRCA2(−/−) colorectal adenocarcinoma cells, an isogenic pair of cell lines differing in the presence and absence, respectively, of both BRCA2 alleles, are used to measure the effect of the disclosed compounds on the viability of cancer cells. In some embodiments, the cells are harvested during the logarithmic growth period, counted, and seeded at a specified count in the wells of a 96- or 384-well cell culture plate. In some embodiments, after seeding, the cells are incubated, e.g., at 37° C., 5% CO2 overnight. In some embodiments, the cells are treated with compounds, e.g., with serially diluted test compounds at 8-11 concentrations within a desired concentration range, e.g., from 1 nM-10 μM, for the generation of dose-response curves. In some embodiments, the plate is further incubated, e.g., for another 3-7 days in a humidified incubator at 37° C. and 5% CO2. In some embodiments, cell viability is assessed by luminescence measurement after addition of Cell Titer-Glo reagent (Promega, Madison, Wis.) according to the manufacturer's instructions. In some embodiments, cell viability IC50 values are calculated using XLFit, equation 201: y=A+((B−A)/(1+((x/C)^D))), where A=bottom, B=top, C=IC50, and D=slope. In some embodiments, the effects of the test compounds on the viability of other cell lines such as MDA-MB-436, MDA-MB-231, SUM149PT, HCC1395, and UWB1.289 are determined in an analogous method.
(§2) Compounds of the present disclosure were tested for their effects on the viability of cancer cells. DLD-1 wild-type and DLD-1 BRCA2(−/−) colorectal adenocarcinoma cells, an isogenic pair of cell lines differing in the presence and absence, respectively, of both BRCA2 alleles, were used. The cells were harvested during the logarithmic growth period, counted, and seeded at 50 cells/well for DLD-1 wild-type and 200 cells/well for DLD-1 BRCA2(−/−) in a 384-well cell culture plate. After seeding, cells were incubated at 37° C., 5% CO2 overnight. Cells were treated with serially diluted test compounds at 10 concentrations (e.g., from 1.5 nM-30 μM) for generation of dose response curves, or at a single concentration. The plate was further incubated for another 7 days in a humidified incubator at 37° C. and 5% CO2. Cell viability was assessed by luminescence measurement after addition of Cell Titer-Glo reagent (Promega, Madison, Wis.) according to the manufacturer's instructions. Cell viability IC50 values were calculated using XLFit, equation 201. y=A+((B−A)/(1+((x/C)^D))), where A=bottom, B=top, C=IC50, and D=slope. IC50 values are shown in Table B and are presented in ranges, in which “+++”<300 nM, 300 nM≤“++”<3000 nM, and “+”≥3000 nM. Values for percent inhibition at 10 μM are also shown in Table B and are presented in ranges, in which “***”≥67%, 33%: “**”≤67%, and “*”<33%. Effects of the test compounds on the viability of other cell lines such as MDA-MB-436, MDA-MB-231, SUM149PT, HCC1395, and UWB1.289 are determined in an analogous method.

Experiment [2] relates to DLD-1 wild-type colorectal adenocarcinoma cells. Nature of the experiment: Cell viability assay (Cell Titer-Glo, 7 days), DLD-1 wild-type. Format: cell-based. The settings on record: Homo sapiens, 168 h, DLD-1 wild-type cells, read-out: DLD-1 wild-type % inh at 10 μM.
Excerpt: as §1, §2

Where [3] appears, read: percent inhibition at 10 μM, fluorescence polarization, GST-tagged PARP2 20 nM, PARP1-FL probe 3 nM.

Structures are written as SMILES. Structures can show the parent of a compound that is named as a salt. Where two headings read alike, the source gives them in different places.

recombinant human PARP1, sequence (P09874 whole entry): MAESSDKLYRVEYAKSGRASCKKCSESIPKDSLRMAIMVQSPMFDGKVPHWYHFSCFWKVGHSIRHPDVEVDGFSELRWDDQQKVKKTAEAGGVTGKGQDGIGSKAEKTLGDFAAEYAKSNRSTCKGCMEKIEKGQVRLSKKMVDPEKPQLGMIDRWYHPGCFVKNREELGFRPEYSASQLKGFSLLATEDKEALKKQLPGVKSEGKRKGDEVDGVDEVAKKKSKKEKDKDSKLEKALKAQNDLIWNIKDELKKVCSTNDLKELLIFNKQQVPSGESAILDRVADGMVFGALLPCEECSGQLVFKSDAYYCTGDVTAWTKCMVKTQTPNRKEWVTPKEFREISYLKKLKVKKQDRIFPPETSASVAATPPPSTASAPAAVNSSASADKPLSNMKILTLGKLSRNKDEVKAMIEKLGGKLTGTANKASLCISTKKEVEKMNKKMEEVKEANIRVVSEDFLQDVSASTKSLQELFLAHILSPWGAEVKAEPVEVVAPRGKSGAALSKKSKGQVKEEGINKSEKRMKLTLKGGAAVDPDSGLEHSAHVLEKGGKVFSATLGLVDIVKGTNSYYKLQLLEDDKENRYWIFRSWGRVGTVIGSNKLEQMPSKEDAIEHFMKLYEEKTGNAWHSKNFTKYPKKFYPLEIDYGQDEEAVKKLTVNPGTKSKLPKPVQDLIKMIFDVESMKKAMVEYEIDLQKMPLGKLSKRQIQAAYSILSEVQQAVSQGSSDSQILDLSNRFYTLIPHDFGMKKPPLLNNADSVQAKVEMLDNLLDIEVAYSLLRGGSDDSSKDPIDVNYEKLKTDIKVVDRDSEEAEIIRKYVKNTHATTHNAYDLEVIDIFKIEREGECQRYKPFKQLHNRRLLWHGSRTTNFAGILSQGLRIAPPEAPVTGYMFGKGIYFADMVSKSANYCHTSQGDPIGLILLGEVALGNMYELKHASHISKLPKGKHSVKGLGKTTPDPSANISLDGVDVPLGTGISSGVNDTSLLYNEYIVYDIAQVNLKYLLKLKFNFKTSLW
recombinant human PARP2, sequence (Q9UGN5 whole entry): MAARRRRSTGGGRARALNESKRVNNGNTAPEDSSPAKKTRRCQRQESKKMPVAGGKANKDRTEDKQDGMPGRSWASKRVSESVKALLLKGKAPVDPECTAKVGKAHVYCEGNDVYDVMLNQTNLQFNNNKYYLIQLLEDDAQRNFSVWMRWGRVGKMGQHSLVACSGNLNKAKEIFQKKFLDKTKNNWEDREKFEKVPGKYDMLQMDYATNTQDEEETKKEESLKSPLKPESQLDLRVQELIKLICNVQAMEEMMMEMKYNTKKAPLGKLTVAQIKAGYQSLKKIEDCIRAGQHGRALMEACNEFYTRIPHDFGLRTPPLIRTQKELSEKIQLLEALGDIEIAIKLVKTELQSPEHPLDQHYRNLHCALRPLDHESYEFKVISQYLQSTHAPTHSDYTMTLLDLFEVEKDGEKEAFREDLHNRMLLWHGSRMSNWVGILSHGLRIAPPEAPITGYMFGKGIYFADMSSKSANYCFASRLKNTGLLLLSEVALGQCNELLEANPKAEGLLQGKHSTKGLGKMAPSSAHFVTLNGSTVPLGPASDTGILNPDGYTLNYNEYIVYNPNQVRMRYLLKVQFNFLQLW

On to `CCNC(=O)Nc1cc(CN2CCN(c3ccc(C(=O)NC#N)nc3C)CC2)ccn1` [Compound 3, N-cyano-5-(4-((2-(3-ethylureido)pyridin-4-yl)methyl)piperazin-1-yl)-6-methylpicolinamide dihydrochloride], for which, at recombinant human PARP1, the 50% inhibitory concentration (IC50) was no less than 3 µM.

Turning to `CCNC(=O)Nc1cc(CN2CCN(c3ccc(C(=O)CC)nc3C)CC2)ccn1` [Compound 7, 1-ethyl-3-(4-((4-(2-methyl-6-propionylpyridin-3-yl)piperazin-1-yl)methyl)pyridin-2-yl)urea], the IC50 was less than 0.1 µM at recombinant human PARP1 and 0.3 to 3 µM in experiment [1]. The inhibition at 10 µM on recombinant human PARP2 (setting [3]) is less than 33%; in experiment [2], 33 to 67%.

Take `CCNC(=O)Nc1cc(CN2CCN(c3ccc(C(=O)NC)nc3F)CC2)ccn1` [Compound 9, 5-(4-((2-(3-ethylureido)pyridin-4-yl)methyl)piperazin-1-yl)-6-fluoro-N-methylpicolinamide]: the IC50 was less than 0.1 µM at recombinant human PARP1 and less than 0.3 µM in experiment [1]. The inhibition at 10 µM (on recombinant human PARP2 (setting [3]); in experiment [2]) was less than 33% each time.

As to `CCNC(=O)Nc1cc(CN2CCN(c3ccc(C(=O)NC)nc3C)CC2)ccn1` [Compound 13, 5-(4-((2-(3-ethylureido)pyridin-4-yl)methyl)piperazin-1-yl)-N,6-dimethylpicolinamide formate], the IC50 is less than 0.1 µM on recombinant human PARP1 and less than 0.3 µM in experiment [1]. For the same molecule, the inhibition at 10 µM (at recombinant human PARP2; in experiment [2]) was less than 33% throughout.

With `CCNC(=O)Nc1cc(CN2CCN(c3ccc(C(=O)NC)nc3C(F)(F)F)CC2)ccn1` [Compound 21, 5-(4-((2-(3-ethylureido)pyridin-4-yl)methyl)piperazin-1-yl)-N-methyl-6-(trifluoromethyl)picolinamide trifluoroacetate], the IC50 at recombinant human PARP1 was less than 0.1 µM; in experiment [1] it was less than 0.3 µM. In addition, the inhibition at 10 µM (at recombinant human PARP2; in experiment [2]) was less than 33% each time.

In the case of `CCNC(=O)Nc1cc(CN2CCN(c3ccc(C(=O)NC)nc3C#N)CC2)ccn1` [Compound 22, 6-cyano-5-(4-((2-(3-ethylureido)pyridin-4-yl)methyl)piperazin-1-yl)-N-methylpicolinamide], the IC50 on recombinant human PARP1 was less than 0.1 µM; in experiment [1], less than 0.3 µM. The inhibition at 10 µM is 33 to 67% at recombinant human PARP2 (setting [3]) and less than 33% in experiment [2].

For the molecule `CCNC(=O)Nc1cc(CN2CCN(c3ccc(-n4cccn4)nc3C)CC2)ccn1` [Compound 24, 1-ethyl-3-(4-((4-(2-methyl-6-(1H-pyrazol-1-yl)pyridin-3-yl)piperazin-1-yl)methyl)pyridin-2-yl)urea], the IC50 on recombinant human PARP1 was less than 0.1 µM; in experiment [1], less than 0.3 µM. In addition, the inhibition at 10 µM (on recombinant human PARP2 (setting [3]); in experiment [2]) was less than 33% in each case.

With `CCNC(=O)Nc1cc(CN2CCN(c3ccc(C(=O)NC)nc3C)CC2=O)ccn1` [Compound 29, 5-(4-((2-(3-ethylureido)pyridin-4-yl)methyl)-3-oxopiperazin-1-yl)-N,6-dimethylpicolinamide], the figures for the IC50 (at recombinant human PARP1; in experiment [1]) were 0.1 to 3 µM and no less than 3 µM, respectively. In addition, the inhibition at 10 µM (at recombinant human PARP2 (setting [3]); in experiment [2]) was less than 33% each time.

As for `CCNS(=O)(=O)Nc1cc(CN2CCN(c3ccc(C(=O)NC)nc3C)CC2)ccn1` [Compound 105, 5-(4-((2-((N-ethylsulfamoyl)amino)pyridin-4-yl)methyl)piperazin-1-yl)-N,6-dimethylpicolinamide], the IC50 at recombinant human PARP1 was no less than 3 µM. For the same molecule, at recombinant human PARP2 (setting [3]), the inhibition at 10 µM was less than 33%.

For the molecule `CCNC(=O)Nc1cc(CN2CCN(c3ccc(C(=O)NC)nc3C)CC2)no1` [Compound 279, 5-(4-((5-(3-ethylureido)isoxazol-3-yl)methyl)piperazin-1-yl)-N,6-dimethylpicolinamide], at recombinant human PARP1, the IC50 was less than 0.1 µM.

Consider `CNC(=O)C(=O)Nc1cc(CN2CCN(c3ccc(C(=O)NC)nc3C)CC2)ns1` [Compound 280, N1-methyl-N2-(3-((4-(2-methyl-6-(methylcarbamoyl)pyridin-3-yl)piperazin-1-yl)methyl)isothiazol-5-yl) oxalamide formate], for which the IC50 at recombinant human PARP1 is no less than 3 µM.

On to `CCNC(=O)Nc1cc(CN2CCN(c3ccc(C(=O)NC)nc3C)CC2)n(C)n1` [Compound 281, 5-(4-((3-(3-ethylureido)-1-methyl-1H-pyrazol-5-yl)methyl)piperazin-1-yl)-N,6-dimethylpicolinamide trihydrochloride], for which the IC50 on recombinant human PARP1 was less than 0.1 µM.
